Source: patent publication US11117890B2, “Substituted isoindole allosteric EGFR inhibitors” (Hoffmann-La Roche Inc., priority 2017, dated 2021)

What follows are compounds tested against T1, Phospho-EGFR in H1975 cell line (Homo sapiens, UniProt P00533, L858R/T790M) (assay: HTRF Phospo EGFR Assay (Cellular)). Conditions: H1975 cells; 6 hours compound incubation in starving medium; HTRF anti-Phospho-EGFR readout.
T1 construct: H1975 cell line was obtained from American Type Culture Collection; host or cells: H1975
T1 sequence (P00533 25-1210 T790M/L858R): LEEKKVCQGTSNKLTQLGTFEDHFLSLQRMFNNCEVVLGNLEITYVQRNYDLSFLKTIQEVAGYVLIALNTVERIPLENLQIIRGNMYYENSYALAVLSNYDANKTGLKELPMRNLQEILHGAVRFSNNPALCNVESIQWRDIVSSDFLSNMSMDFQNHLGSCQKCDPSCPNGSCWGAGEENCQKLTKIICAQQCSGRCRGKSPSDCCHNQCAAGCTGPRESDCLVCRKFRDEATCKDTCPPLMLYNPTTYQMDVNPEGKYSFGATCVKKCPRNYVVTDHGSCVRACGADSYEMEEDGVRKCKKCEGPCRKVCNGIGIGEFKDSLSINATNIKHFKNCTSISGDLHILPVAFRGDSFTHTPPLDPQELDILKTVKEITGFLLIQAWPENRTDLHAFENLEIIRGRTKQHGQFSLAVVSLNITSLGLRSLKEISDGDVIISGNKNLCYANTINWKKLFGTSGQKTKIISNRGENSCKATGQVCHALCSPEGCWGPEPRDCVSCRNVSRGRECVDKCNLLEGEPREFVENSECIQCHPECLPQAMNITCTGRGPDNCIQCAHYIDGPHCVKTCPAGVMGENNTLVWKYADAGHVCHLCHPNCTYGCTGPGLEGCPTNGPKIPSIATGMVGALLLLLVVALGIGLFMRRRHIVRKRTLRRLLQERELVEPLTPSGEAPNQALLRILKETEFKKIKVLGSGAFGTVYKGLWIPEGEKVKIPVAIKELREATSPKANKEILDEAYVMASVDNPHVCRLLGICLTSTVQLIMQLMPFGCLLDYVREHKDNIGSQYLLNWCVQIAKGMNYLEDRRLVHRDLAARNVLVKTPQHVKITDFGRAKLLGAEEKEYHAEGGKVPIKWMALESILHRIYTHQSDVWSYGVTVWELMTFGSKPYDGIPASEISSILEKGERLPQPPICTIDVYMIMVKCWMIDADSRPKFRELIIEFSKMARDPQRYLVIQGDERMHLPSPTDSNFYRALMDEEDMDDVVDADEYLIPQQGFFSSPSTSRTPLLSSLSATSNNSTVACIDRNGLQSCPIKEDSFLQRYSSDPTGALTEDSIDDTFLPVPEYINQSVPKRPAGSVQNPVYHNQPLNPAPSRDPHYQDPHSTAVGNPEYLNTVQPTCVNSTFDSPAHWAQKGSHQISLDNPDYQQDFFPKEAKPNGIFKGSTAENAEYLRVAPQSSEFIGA
Assay type: cell-based
Procedure: HTRF Phospo EGFR Assay (Cellular)
H1975 cell line was obtained from American Type Culture Collection (Manassas, Va., USA). Cells were maintained at 37° C., 5% CO2 in complete Media RPMI 1640 without phenol red containing 0.3 mg/ml glutamine, 100 IU/ml penicillin, and […] (Gibco) supplemented with 10% fetal bovine serum (FBS) (Gibco). Compounds were diluted into starving medium RPMI 1640 Media without phenol red containing 0.3 mg/ml glutamine, 100 IU/ml penicillin, and […] (Gibco).
Cells were cultured overnight in a 384-well white plate (8000 cells/well) using 8 μl of complete medium/well. Cells were washed two times with 20 μl of starving medium. Media was removed by tapping plates on tissue and subsequently 8 μl of fresh starving medium/well was added. Then 4 μl/well of the 3×compound solution, containing a half-log dilution series of the compound or DMSO in starving medium, were added to the cells. After 6 hours at 37° C., 5% CO2 cells were lysed by adding to the compound mix 4 μl/well of the supplemented lysis buffer, followed by incubation for 30 min at room temperature with shaking. Lysates were stored at −20° C. overnight. The following day plates were thawed and 2 μl of anti-Phospho-EGFR Cryptate and 2 μl of anti-Phospho-EGFR-d2 antibody solutions prepared in the detection buffer were added. The plates were then incubated for at least 4 h at room temperature before reading the fluorescence emission at 620 and 665 nm using PHERAstar FX plate reader (BMG Labtech).
`CC(=O)Nc1ccc(C#Cc2ccc3c(c2)C(=O)N(C(C(=O)Nc2nccs2)c2ccccc2)C3)cn1` (racemic) [Example 7, (2RS)-2-[6-[2-(6-Acetamido-3-pyridyl)ethynyl]-1-oxo-isoindolin-2-yl]-2-phenyl-N-thiazol-2-yl-acetamide] was tested, and the IC50 was 10 nM.
With `O=C(Nc1nccs1)C(c1cc(F)ccc1O)N1Cc2ccc(C#Cc3cccnc3)cc2C1=O` (racemic) [Example 16, (2RS)-2-(5-Fluoro-2-hydroxy-phenyl)-2-[1-oxo-6-[2-(3-pyridyl)ethynyl]isoindolin-2-yl]-N-thiazol-2-yl-acetamide] the IC50 was 1 nM.
Work on `Nc1ccc(C#Cc2ccc3c(c2)C(=O)N(C(C(=O)Nc2ccccn2)c2cc(F)ccc2O)C3)cn1` (racemic) [Example 20, (2RS)-2-[6-[2-(6-Amino-3-pyridyl)ethynyl]-1-oxo-isoindolin-2-yl]-2-(5-fluoro-2-hydroxy-phenyl)-N-(2-pyridyl)acetamide] yielded an IC50 of 4 nM.
`O=C(Nc1nccs1)C(c1cc(F)ccc1O)N1Cc2ccc(C#Cc3ccccc3)cc2C1=O` (racemic) [Example 17, (2RS)-2-(5-Fluoro-2-hydroxy-phenyl)-2-[1-oxo-6-(2-phenylethynyl)isoindolin-2-yl]-N-thiazol-2-yl-acetamide] showed an IC50 of 6 nM.
